Results reported in US20240174648A1, “Small Molecule Compound” (Technoderma Medicines Pte Ltd, priority 2019, published 2024).

Key:
[1] = target: Tyk2 (Homo sapiens, UniProt P29597); assay: JAK kinase inhibition assay (EZ Reader, peptide substrate phosphorylation) - Tyk2; assay type: biochemical; details: Tyk2 kinase 1 nM; 8 concentration points, max 10 μM
From the text: (§1) Assay for Identifying Inhibitory Effects of Compounds on JAK Kinases
(§2) Janus kinases (JAK), including JAK1, JAK2, JAK3 and Tyk2, transduce a cytokine-mediated signal through a JAK-STAT pathway. The kinases are 120-140 kDa in size and have 7 determined homology regions: JH1 to JH7. JH1 is an important region for enzymatic activity and has typical characteristics of tyrosine kinases. Phosphorylation of tyrosine leads to a change in the conformation of JAK protein, thereby promoting binding of substrate. The JAK-STAT system includes three main parts: receptors penetrating a cell membrane, Janus kinases binding to the receptors, and signal transducers and activators of transcription (STAT) for transmitting signals to a nucleus and DNA. When cytokines bind to receptors, JAK phosphorylates the receptors and attracts STAT proteins. The STAT proteins are also phosphorylated and combined with one another to form dimers. The dimers enter the nucleus and bind to DNA, thereby leading to gene transcription.
(§3) EZ Reader from PerkinElmer can be used to detect the phosphorylation of polypeptide substrates catalyzed by kinases. The device is based on microfluidic techniques, and can directly detect fluorescently labeled substrates and products. The separation step is achieved by controlling the pressure and electric field strength in the microfluidic chip. In kinase assays, a product conversion ratio is usually controlled to be 20-30%. A biological test is used to identify inhibitory effects of compounds on JAKs.
(§4) Compound powder was dissolved in DMSO, sealed and stored in a freezer under −20° C. The in-house compound Ref1 was used as a positive control for JAK1, JAK2 and Tyk2 tests, and Ref2 was used as a positive control for JAK3 tests.
(§5) S2.8. Assay buffer: 20 mM HEPES buffer, pH 7.4, 10 mM magnesium chloride, 0.01% bovine serum albumin BSA, 0.0005% Tween-20 and 1 mM dithiothreitol solution.
(§6) S2.9. Stop buffer: 180 mM HEPES buffer, 20 mM ethylenediaminetetraacetic acid and 0.2% coating reagent 3.
(§7) S2.10. Separation buffer: 100 mM HEPES buffer, 10 mM ethylenediaminetetraacetic acid, 0.0005% Tween 20, 0.1% coating reagent 3 and 1% dimethyl sulfoxide.
(§8) The compound was dissolved in dimethyl sulfoxide and diluted to 10 mM concentration, a certain volume of solution was taken and diluted to 0.6 mM concentration, 10 μL of the 0.6 mM dilution was added to a 384-well microplate, and then was diluted 3-fold with a total of 8 concentration points.
(§9) Positive control (HPE1): Ref1, final concentration: 10 μM […]
(§10) Negative control (ZPE): DMSO, final content: 1.6%
(§11) Compounds: maximum final concentration: 10 μM; 3-fold dilution, 8 concentration points and 2 duplicates.
(§12) S4.1. 250 nL of the compound was added to each well of the assay microplate by using ECHO, and centrifuged at 1000 rpm for 1 minute.
(§13) S4.2. 5 μL of the assay buffer was added and agitated for a few seconds to fully dissolve the compound.
(§14) S4.3. 5 μL of 3× substrate solution and 5 μL of 3× kinase solution were added and centrifuged at 800 rpm for 1 minute.
(§15) S4.4. Final concentrations of JAK1, JAK2, JAK3 and Tyk2 kinases in the reaction system were 20 nM, 1 nM, 1 nM and 1 nM respectively.
(§16) S4.5. Incubation at room temperature, where kinases had time differences, and different batches of kinases had time differences.
(§17) S4.6. When 20%-30% of the reaction completed, 15 μL of stop buffer was added to stop the reaction, and centrifuged at 1000 rpm for 2 minutes.
(§18) S4.7. The microplates were placed on EZ Reader for reading.
(§19) S4.8. Readings on EZ Reader were calculated by using a peak height, where product conversion ratio (%)=product/(product+substrate)*100.
(§20) 5. Data Processing: IC50 calculation
(§21) A graphing software Xlfit was used to form a concentration curve of the test compound, and an IC50 value was calculated.
(§22) “A” means “≥10 μM”; “B” means “≥1 μM and <10 μM”; “C” means “≥0.1 μM and <1 μM”; and “D” means “<0.1 μM”.

[2] = target: JAK1 (Homo sapiens, UniProt P23458); assay: JAK kinase inhibition assay (EZ Reader, peptide substrate phosphorylation) - JAK1; assay type: biochemical; details: JAK1 kinase 20 nM; 8 concentration points, max 10 μM
From the text: as §1, §2, §3, §4, §5, §6, §7, §8, §9, §10, §11, §12, §13, §14, §15, §16, §17, §18, §19, §20, §21, §22

Tyk2, sequence (P29597 whole entry): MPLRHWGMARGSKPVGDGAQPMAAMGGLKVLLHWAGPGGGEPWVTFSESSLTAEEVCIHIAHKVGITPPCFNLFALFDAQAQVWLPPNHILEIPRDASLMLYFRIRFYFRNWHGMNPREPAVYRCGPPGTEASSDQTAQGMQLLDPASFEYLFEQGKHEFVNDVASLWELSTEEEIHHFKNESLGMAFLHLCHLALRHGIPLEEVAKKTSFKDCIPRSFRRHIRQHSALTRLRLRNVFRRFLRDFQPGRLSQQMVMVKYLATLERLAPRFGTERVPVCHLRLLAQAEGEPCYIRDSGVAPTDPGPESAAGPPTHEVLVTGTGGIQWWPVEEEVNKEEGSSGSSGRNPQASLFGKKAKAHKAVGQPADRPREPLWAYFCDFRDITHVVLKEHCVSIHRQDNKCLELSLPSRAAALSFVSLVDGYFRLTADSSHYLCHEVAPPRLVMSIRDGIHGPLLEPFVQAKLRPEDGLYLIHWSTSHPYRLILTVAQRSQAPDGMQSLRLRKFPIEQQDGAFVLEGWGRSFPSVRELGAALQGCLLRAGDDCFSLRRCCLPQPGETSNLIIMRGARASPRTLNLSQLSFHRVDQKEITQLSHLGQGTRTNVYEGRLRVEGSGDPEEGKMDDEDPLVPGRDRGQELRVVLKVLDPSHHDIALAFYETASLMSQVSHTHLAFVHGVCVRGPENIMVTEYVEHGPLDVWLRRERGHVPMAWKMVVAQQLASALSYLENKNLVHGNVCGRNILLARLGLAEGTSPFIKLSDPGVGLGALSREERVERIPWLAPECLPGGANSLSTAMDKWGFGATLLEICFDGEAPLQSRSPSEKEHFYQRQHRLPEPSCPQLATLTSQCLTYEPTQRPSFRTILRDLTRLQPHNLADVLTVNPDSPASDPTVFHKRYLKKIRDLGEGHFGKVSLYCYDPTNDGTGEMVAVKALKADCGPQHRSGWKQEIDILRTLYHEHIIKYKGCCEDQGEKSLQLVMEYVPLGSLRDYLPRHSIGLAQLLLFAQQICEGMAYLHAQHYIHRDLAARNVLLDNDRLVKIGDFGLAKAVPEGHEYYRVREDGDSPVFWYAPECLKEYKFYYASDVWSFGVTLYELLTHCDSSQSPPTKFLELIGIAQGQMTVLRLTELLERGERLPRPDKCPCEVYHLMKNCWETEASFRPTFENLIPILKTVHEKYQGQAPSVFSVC
JAK1, sequence (P23458 whole entry): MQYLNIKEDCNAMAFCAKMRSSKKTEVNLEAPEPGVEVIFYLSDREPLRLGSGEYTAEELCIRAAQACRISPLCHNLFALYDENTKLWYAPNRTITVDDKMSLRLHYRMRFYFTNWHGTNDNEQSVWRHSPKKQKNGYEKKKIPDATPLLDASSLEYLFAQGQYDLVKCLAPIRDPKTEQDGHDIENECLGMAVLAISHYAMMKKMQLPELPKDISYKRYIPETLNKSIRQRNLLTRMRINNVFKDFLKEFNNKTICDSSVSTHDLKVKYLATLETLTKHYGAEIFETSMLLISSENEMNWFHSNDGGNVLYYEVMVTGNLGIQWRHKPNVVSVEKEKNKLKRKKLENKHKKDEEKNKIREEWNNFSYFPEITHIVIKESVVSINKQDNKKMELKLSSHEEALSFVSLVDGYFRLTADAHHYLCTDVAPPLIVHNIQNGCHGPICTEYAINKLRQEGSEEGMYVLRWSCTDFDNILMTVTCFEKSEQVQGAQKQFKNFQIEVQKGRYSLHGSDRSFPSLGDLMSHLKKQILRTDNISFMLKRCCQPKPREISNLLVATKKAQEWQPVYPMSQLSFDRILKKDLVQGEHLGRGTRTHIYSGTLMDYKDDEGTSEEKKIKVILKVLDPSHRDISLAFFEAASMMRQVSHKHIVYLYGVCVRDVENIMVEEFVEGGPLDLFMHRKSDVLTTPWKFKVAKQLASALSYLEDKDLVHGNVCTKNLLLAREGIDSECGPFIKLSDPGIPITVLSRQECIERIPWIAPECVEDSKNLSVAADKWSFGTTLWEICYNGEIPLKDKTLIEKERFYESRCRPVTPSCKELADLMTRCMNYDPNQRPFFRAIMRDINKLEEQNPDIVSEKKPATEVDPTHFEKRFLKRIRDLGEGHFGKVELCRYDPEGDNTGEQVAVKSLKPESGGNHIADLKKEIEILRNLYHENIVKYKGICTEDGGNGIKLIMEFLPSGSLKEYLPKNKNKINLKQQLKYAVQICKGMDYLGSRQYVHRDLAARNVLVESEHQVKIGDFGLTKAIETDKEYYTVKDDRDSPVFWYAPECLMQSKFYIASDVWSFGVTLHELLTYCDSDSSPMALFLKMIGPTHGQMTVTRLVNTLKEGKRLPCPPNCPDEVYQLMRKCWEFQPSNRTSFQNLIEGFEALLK

| Structure (SMILES) | IC50 [1] [µM] | IC50 [2] [µM] |
| --- | --- | --- |
| Cn1cc(Nc2nccc(-c3ccc(NC(=O)CC(F)(F)F)c4[nH]ccc34)n2)cn1 [TDM-180870, 3,3,3-trifluoro-N-(4-(2-((1-methyl-1H-pyrazol-4-yl)amino)pyrimidin-4-yl)-1H-indol-7-yl)propanamide] | 0.1 to 1 | < 0.1 |
| Cn1cc(Nc2nccc(-c3ccc(NS(=O)(=O)CCCF)nc3)n2)cn1 [TDM-180903, 3-fluoro-N-(5-(2-((1-methyl-1H-pyrazol-4-yl)amino)pyrimidin-4-yl)pyridin-2-yl)propane-1-sulfonamide] | 1 to 10 | 1 to 10 |
| Cn1cc(Nc2nccc(-c3ccc(NS(=O)(=O)Cc4ccccc4)nc3)n2)cn1 [TDM-180897, N-(5-(2-((1-methyl-1H-pyrazol-4-yl)amino)pyrimidin-4-yl)pyridin-2-yl)-1-phenylmethanesulfonamide] | 0.1 to 1 | 0.1 to 1 |
| Cn1cc(Nc2nccc(-c3ccc(NC(=O)C4CC4)c4[nH]ncc34)n2)cn1 [TDM-180884, N-(4-(2-((1-methyl-1H-pyrazol-4-yl)amino)pyrimidin-4-yl)-1H-indazol-7-yl)cyclopropanemethane] | 0.1 to 1 | 0.1 to 1 |
| Cn1cc(Nc2nccc(-c3ccc(CN4CCOCC4)cc3)n2)cn1 [TDM-180787, N-(1-methyl-1H-pyrazol-4-yl)-4-(4-(morpholinomethyl)phenyl)pyrimidine-2-amine] | 1 to 10 | 1 to 10 |
| Cn1cc(Nc2nccc(-c3ccc(NS(=O)(=O)CCc4ccccc4)cc3)n2)cn1 [TDM-180894, N-(4-(2-((1-methyl-1H-pyrazol-4-yl)amino)pyrimidin-4-yl)phenyl)-2-phenylethane-1-sulfonamide] | 0.1 to 1 | 0.1 to 1 |
| CCS(=O)(=O)Nc1ccc(-c2ccnc(Nc3cnn(C)c3)n2)cn1 [TDM-180829, N-(5-(2-((1-methyl-1H-pyrazol-4-yl)amino)pyrimidin-4-yl)pyridin-2-yl)ethanesulfonamide] | 1 to 10 | 1 to 10 |
| Cn1cc(Nc2nccc(-c3ccc(NS(=O)(=O)CCCF)cc3)n2)cn1 [TDM-180896, 3-fluoro-N-(4-(2-((1-methyl-1H-pyrazol-4-yl)amino)pyrimidin-4-yl)phenyl)propane-1-sulfonamide] | 0.1 to 1 | 0.1 to 1 |
| Cn1cc(Nc2nccc(-c3ccc(NS(=O)(=O)CCC(F)(F)F)nc3)n2)cn1 [TDM-180895, 3,3,3-trifluoro-N-(5-(2-((1-methyl-1H-pyrazol-4-yl)amino)pyrimidin-4-yl)pyridin-2-yl)propane-1-sulfonamide] | ≥ 10 | 1 to 10 |
| Cn1cc(Nc2nccc(-n3ccc4c(NC(=O)CC#N)cccc43)n2)cn1 [TDM-180881, 2-cyano-N-(1-(2-((1-methyl-1H-pyrazol-4-yl)amino)pyrimidin-4-yl)-1H-indol-4-yl)acetamide] | 0.1 to 1 | < 0.1 |
| COCCC(=O)Nc1ccc(-c2ccnc(Nc3cnn(C)c3)n2)cc1 [TDM-180799, 3-methoxy-N-(4-(2-((1-methyl-1H-pyrazol-4-yl)amino)pyrimidin-4-yl)phenyl)propanamide] | 1 to 10 | 0.1 to 1 |
| Cn1cc(Nc2nccc(-c3ccc(NS(=O)(=O)C4CCOCC4)nc3)n2)cn1 [TDM-180875, N-(5-(2-((1-methyl-1H-pyrazol-4-yl)amino)pyrimidin-4-yl)pyridin-2-yl)tetrahydro-2H-pyran-4-sulfonamide] | 1 to 10 | 0.1 to 1 |
| Cn1cc(Nc2nccc(-c3ccc(NC(=O)CC(F)(F)F)c4[nH]ncc34)n2)cn1 [TDM-180900, 3,3,3-trifluoro-N-(4-(2-((1-methyl-1H-pyrazol-4-yl)amino)pyrimidin-4-yl)-1H-indazol-7-yl)propionamide] | 0.1 to 1 | < 0.1 |
| Cn1cc(Nc2nccc(-c3ccc(NC(=O)C4CC4)c4cc[nH]c34)n2)cn1 [TDM-180926, N-(7-(2-((1-methyl-1H-pyrazol-4-yl)amino)pyrimidin-4-yl)-1H-indole-4-yl)cyclopropanecarboxamide] | ≥ 10 | ≥ 10 |

The next lines start with the values.

| IC50 [1] [µM] | IC50 [2] [µM] | Structure (SMILES) |
| --- | --- | --- |
| 1 to 10 | 0.1 to 1 | Cn1cc(Nc2nccc(-c3cnc(NC(=O)C4CC4(F)F)cn3)n2)cn1 (stereo not shown) [TDM-180892, 2,2-difluoro-N-(5-(2-((1-methyl-1H-pyrazol-4-yl)amino)pyrimidin-4-yl)pyrazin-2-yl)cyclopropane-1-formamide] |
| < 0.1 | < 0.1 | Cn1cc(Nc2nccc(-c3ccc(NC(=O)[C@@H]4CC4(F)F)nc3)n2)cn1 [TDM-180935, (S)-2,2-difluoro-N-(5-(2-((1-methyl-1H-pyrazol-4-yl)amino)pyrimidin-4-yl)pyridin-2-yl)cyclopropane-1-carboxamide] |
| 0.1 to 1 | < 0.1 | Cn1cc(Nc2nccc(-c3ccc(NC(=O)C4CC4(F)F)c4[nH]ncc34)n2)cn1 (stereo not shown) [TDM-180899, 2,2-difluoro-N-(4-(2-((1-methyl-1H-pyrazol-4-yl)amino)pyrimidin-4-yl)-1H-indazol-7-yl)cyclopropane-1-carboxamide] |
| < 0.1 | < 0.1 | Cn1cc(Nc2nccc(-c3ccc(NC(=O)[C@@H]4CC4(F)F)cc3)n2)cn1 [TDM-180934] |
| ≥ 10 | ≥ 10 | Cn1cc(Nc2nccc(-c3ccnc(NC(=O)CC#N)c3)n2)cn1 [TDM-180774, 2-cyano-N-(4-(2-((1-methyl-1H-pyrazol-4-yl)amino)pyrimidin-4-yl)pyridin-2-yl)acetamide] |
| 1 to 10 | 1 to 10 | Cn1cc(Nc2nccc(-c3cnc(NC(=O)C4CC4)c(F)c3)n2)cn1 [TDM-180891, N-(3-fluoro-5-(2-((1-methyl-1H-pyrazol-4-yl)amino)pyrimidin-4-yl)pyridin-2-yl)cyclopropanecarboxamide] |
| 1 to 10 | 1 to 10 | Cn1cc(Nc2nccc(-c3ccc(NC(=O)CO)nc3)n2)cn1 [TDM-180806, 2-hydroxy-N-(5-(2-((1-methyl-1H-pyrazol-4-yl)amino)pyrimidin-4-yl)pyridin-2-yl)acetamide] |
| ≥ 10 | 1 to 10 | Cn1cc(Nc2nccc(-c3ccc(NC(=O)C4CC4(F)F)c4cc[nH]c34)n2)cn1 (stereo not shown) [TDM-180929, 2,2-difluoro-N-(7-(2-((1-methyl-1H-pyrazol-4-yl)amino)pyrimidin-4-yl)-1H-indol-4-yl)cyclopropane-1-carboxamide] |
| 0.1 to 1 | < 0.1 | Cn1cc(Nc2nccc(-c3ccc(NC(=O)[C@H]4CC4(F)F)cc3)n2)cn1 [TDM-180936, (R)-2,2-difluoro-N-(4-(2-((1-methyl-1H-pyrazol-4-yl)amino)pyrimidin-4-yl)phenyl)cyclopropane-1-carboxamide] |
| 1 to 10 | 0.1 to 1 | Cn1cc(Nc2nccc(-c3cnc(NC(=O)CC#N)c(F)c3)n2)cn1 [TDM-180890, 2-cyano-N-(3-fluoro-5-(2-((1-methyl-1H-pyrazol-4-yl)amino)pyrimidin-4-yl)pyridin-2-yl)acetamide] |
| 0.1 to 1 | < 0.1 | Cn1cc(Nc2nccc(-c3cnc(NC(=O)C4CC4(F)F)nc3)n2)cn1 (stereo not shown) [TDM-180886, 2,2-difluoro-N-(2-((1-methyl-1H-pyrazol-4-yl)amino)-[4,5′-bipyrimidin]-2′-yl)cyclopropane-1-carboxamide] |
| < 0.1 | < 0.1 | Cn1cc(Nc2nccc(-c3ccc(NC(=O)C4CC4(F)F)c4[nH]ccc34)n2)cn1 (stereo not shown) [TDM-180868, 2,2-difluoro-N-(4-(2-((1-methyl-1H-pyrazol-4-yl)amino)pyrimidin-4-yl)-1H-indol-7-yl)cyclopropane-1-carboxamide] |
